Source: patent US20050032810A1, “Novel anthelmintic and insecticidal compositions” (priority 2003, published 2005)

Test system: H. contortus larvae
Assay: H. contortus Larval Development Assay
Type: cell-based
Details: at 10 μM
From the text: Compounds can be evaluated for anthelmintic activity according to the H. contortus Larval Development Assay described in Journal of Helminthology, 1984, 58, 107.

Compound: Nc1cc(N2CCC(c3ccccc3)CC2)nc(N)n1 [Compound 2, 6-(4-phenylpiperidin-1-yl)pyrimidine-2,4-diamine]
- motility of the larvae: inhibited motility of the larvae
